Legend:
[1] = system: cultured primary human myocytes; experiment: fatty acid oxidation rates in cultured primary human myocytes (radiolabeled CO2 release); assay type: cell-based; conditions: 48 hr, n=6; for differences from control in fatty acid oxidation: ethanol control, 30, 100 and 300 micromolar; for promotion of fatty acid oxidation (complete oxidation, CO2): normal primary human myocytes, 30, 100 and 300 micromolar, radiolabeled oleic acid, compared to EPAEE
Excerpt: FIG. 1 is a graph of the data obtained from biology tests described herein of EPA and DHA ascorbates on fatty acid oxidation rates in cultured on normal primary human myocytes. The vertical axis is the complete oxidation (nmol CO2/mg protein). The statistical variance is shown by the “T” at the top of each bar. The #1 bar (solid coral) is the ethanol as control; #2 bars (solid gray, from left to right are 30, 100 and 300 micromolar) of EPA; #3 bars (solid green, from left to right are 30, 100 and 300 micromolar) of EPAX; #4 bars (hash red and white, from left to right are 30, 100 and 300 micromolar) of DHAX; and #5 bars (solid red, from left to right are 30, 100 and 300 micromolar) of EPAEE.
Effect of EPA and DHA ascorbates on fatty acid oxidation rates in cultured primary human myocytes were determined and discussed below.
Cell-based multiwell assays for the detection of substrate accumulation and oxidation are described in literature (A. J. Wensaas, et al., J. of Lipid Research 48, 961-967 (2007)) for detecting the accumulation as well as the subsequent oxidation of ^14C labeled substrates in cultured cells. Accumulation is monitored in real time by an established scintillation proximity assay in which the scintillator is embedded in the plate base primarily detecting cell-associated radiolabel. This method was applied, and the effect of EPA and DHA ascorbates on fatty acid oxidation rates in cultured primary human myocytes was determined The compounds tested were EPA, EPAX (EPAX), DHAX (DHAX), and EPAEE.
Cultured human primary myocytes from normal (non-diabetic, non-obese) subjects
Cells treated with 30, 100 and 300 micromolar of each compound for 48 hr
Cells grown in the presence of radiolabeled oleic acid
Radiolabeled CO2 released during the incubation was measured.
Each compound was tested 6 times (n=6)

[2] = cited from earlier work

SMILES	differences from control in fatty acid oxidation [1]	promotion of fatty acid oxidation (complete oxidation, CO2) [1]	solubility in aqueous ethanol ([2]; aqueous ethanol)	solubility in water ([2]; water)
CC/C=C\C/C=C\C/C=C\C/C=C\C/C=C\CCCC(=O)OC[C@H](O)[C@H]1OC(=O)C(O)=C1O [EPA ascorbate]	not statistically significant	distinct trend		
CCCCCCCCCCCCCCCC(=O)OC[C@H](O)[C@H]1OC(=O)C(O)=C1O [Palmitoyl ascorbate, 6-O-palmitoyl L-ascorbate]			soluble	sparingly soluble
CC/C=C\C/C=C\C/C=C\C/C=C\C/C=C\C/C=C\CCC(=O)OC[C@H](O)[C@H]1OC(=O)C(O)=C1O [DHA ascorbate]	not statistically significant	to a lesser degree		
